Results published in paper PMC10453766, “Comparison of the Effects of DOTA and NOTA Chelators on ^64Cu-Cudotadipep and ^64Cu-Cunotadipep for Prostate Cancer” (Diagnostics, 2023).
Where two headings read alike, the source gives them in different places. Values belong to the molecule of their own block, whether it stands above or below them.

Key:
[1] = target: T1, PSMA (Homo sapiens, UniProt Q04609); assay: Saturation binding assay of ^125I-MIP-1095 in 22Rv1 cells; settings: saturation binding test
T1 construct: host or cells: 22Rv1 human prostate cancer cells (intact cells)
Experimental: The dissociation constant (Kd) of MIP-1095 was determined via a saturation binding assay. The saturation binding assay was performed as performed in a previous study. Briefly, the 22Rv1 cells (2 × 10^5) were aliquoted into wells in a 24-well plate and incubated with 0.7–17.5 nM (0.0037–0.1332 MBq) of ^125I-MIP-1095 at 37 °C for 1 h. To prevent nonspecific binding, 500 μM unlabeled MIP was added. Radioactivity was measured using 2480 WIZARD2 gamma counter (Perkin Elmer, Waltham, MA, USA). Statistical analysis was performed using Microsoft Excel.

[2] = test system: PC3-PIP (PSMA+) cells; assay: Cell uptake in PC3-PIP cells; assay type: cell-based, human
Experimental: (§1) PC3-PIP or PC3-flu cells (1 × 10^6) were mixed with 3.7 MBq (100 μCi) of ^64Cu-cudotadipep or ^64Cu-cunotadipep and incubated at 37 °C and 5% CO2 for 2 h. Following incubation, the cells were washed with PBS twice and collected via centrifugation (2000 rpm, 5 min). Radioactivity was measured using 2480 WIZARD2 gamma counter (Perkin Elmer, Waltham, MA, USA). Percent (%) uptake was calculated using the ratio between the radioactivity of the cells and treated radioactivity.

[3] = test system: PC3-flu (PSMA−) cells; assay: Cell uptake in PC3-flu cells; assay type: cell-based, human; settings: 1 × 10^6 cells, 3.7 MBq, 2 h, 37 °C
Experimental: as §1

[4] = Radiation-absorbed dose calculation (OLINDA/EXM) from normal mouse biodistribution; design: species or system human
Experimental: The biodistribution results of normal BALB/c mice were used to evaluate the human radiation-absorbed dose. The internal absorbed doses of ^64Cu-cudotadipep and ^64Cu-cunotadipep were evaluated using the residence time and total amount of radioactivity in the target organ of the mice. The internal absorbed dose of the mice was converted to the human dose based on the Medical Internal Radiation Dose schema, using OLINDA/EXM version 1.1 software.

[5] = test system: PC3-PIP tumor xenograft; assay: Biodistribution in PC3-PIP tumor-bearing nude mice; assay type: in vivo, mouse; settings: tail vein
Experimental: All animal experiments followed the procedures approved by the Institutional Animal Care and Use Committee of Korea Institute of Radiological & Medical Sciences (approval No. KIRAMS2021-0044). Male BALB/c mice and athymic nude (Nu/Nu) BALB/c mice (weighing 20–25 g, 8 weeks old) were purchased from Nara Biotech (Seoul, Republic of Korea). PC3-PIP cells (1 × 10^7) were dispensed in 100 μL PBS, mixed with Matrigel, and subcutaneously implanted in the right thigh of male athymic nude (Nu/Nu) BALB/c mice. When the tumor reached 0.5–0.9 cm in diameter (2–3 weeks following implantation), biodistribution studies and PET imaging were performed.
(§2) Approximately 0.93 MBq ^64Cu-cudotadipep or ^64Cu-cunotadipep was injected via the tail vein into normal BALB/c mice or PC3-PIP tumor-bearing nude mice (n = 5/group). Normal and tumor-bearing mice were euthanized at 2, 6, 24, and 48 h following injection. Tumor and normal tissues were excised and weighed, and their radioactivity was measured using a gamma counter (2480 WIZARD2 gamma counter, Perkin Elmer, Waltham, MA, USA). The radioactivity measured in each tissue was expressed as a percentage of the injected dose per gram of tissue (%ID/g).

[6] = Biodistribution in normal BALB/c mice; assay type: in vivo, mouse; settings: tail vein
Experimental: as §2

[7] = ^18F-labeled PSMA compounds; cited from earlier work
[8] = target: T1, PSMA; assay: Competitive binding assay against ^125I-MIP-1095 in 22Rv1 cells
Experimental: The 22Rv1 cells (1 × 10^6 cells/well, 48-well plate) were washed with phosphate-buffered saline (PBS), and the culture medium was substituted with RPMI-1640 medium containing 1% bovine serum albumin. The cells were incubated for 1 h at 37 °C and 5% CO2 with unlabeled cudotadipep or cunotadipep (1.00 × 10^−4–1.00 × 10^−10 M) or 0.09–0.1 nM ^125I-(S)-2-(3-((S)-1-carboxy-5-(3-(4-iodophenyl)ureido)pentyl)ureido)pentanedioic acid (^125I-MIP-1095). The cells were washed twice in cold PBS and collected via centrifugation (2000 rpm, 5 min). Radioactivity was measured using 2480 WIZARD2 gamma counter (Perkin Elmer, Waltham, MA, USA). IC50 was calculated using Microsoft Excel and converted to Ki, using the Cheng–Prusoff equation [21].

T1 sequence (Q04609 whole entry): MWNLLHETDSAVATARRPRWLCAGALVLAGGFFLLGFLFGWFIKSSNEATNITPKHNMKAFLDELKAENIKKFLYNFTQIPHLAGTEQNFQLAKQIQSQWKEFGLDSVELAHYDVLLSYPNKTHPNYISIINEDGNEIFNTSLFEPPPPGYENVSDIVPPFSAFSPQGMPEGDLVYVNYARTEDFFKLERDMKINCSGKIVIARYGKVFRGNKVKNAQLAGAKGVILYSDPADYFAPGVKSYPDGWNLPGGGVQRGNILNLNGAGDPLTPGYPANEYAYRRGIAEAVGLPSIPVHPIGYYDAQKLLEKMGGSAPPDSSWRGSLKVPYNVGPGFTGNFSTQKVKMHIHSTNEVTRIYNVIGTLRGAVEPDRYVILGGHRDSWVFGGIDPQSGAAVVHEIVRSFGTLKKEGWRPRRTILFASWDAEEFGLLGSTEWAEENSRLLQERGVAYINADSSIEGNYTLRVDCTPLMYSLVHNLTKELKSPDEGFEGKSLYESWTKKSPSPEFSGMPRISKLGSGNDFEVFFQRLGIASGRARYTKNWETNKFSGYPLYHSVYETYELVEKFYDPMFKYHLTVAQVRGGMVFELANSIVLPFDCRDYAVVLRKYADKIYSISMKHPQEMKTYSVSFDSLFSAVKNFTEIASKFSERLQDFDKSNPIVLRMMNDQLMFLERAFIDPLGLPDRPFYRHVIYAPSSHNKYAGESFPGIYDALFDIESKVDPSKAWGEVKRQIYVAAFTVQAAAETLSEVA

Bmax [1]: 0.25 nM
Kd [1]: 0.13 nM
SMILES: O=C(O)CC[C@H](NC(=O)N[C@@H](CCCCNC(=O)Nc1ccc(I)cc1)C(=O)O)C(=O)O [MIP-1095, ^125I-(S)-2-(3-((S)-1-carboxy-5-(3-(4-iodophenyl)ureido)pentyl)ureido)pentanedioic acid]

effective dose ([4]; ICRP tissue-weighting factors, OLINDA/EXM, extrapolated from mouse biodistribution): 3.67 × 10^−1 mSv/MBq
estimated radiation-absorbed dose, kidneys ([4]; adult males, extrapolated from normal BALB/c mouse biodistribution): 8.10 mGy/MBq
Biodistribution, Blood ([5]; 2 h): 2.79 ± 1.90 %ID/g
Biodistribution, Bone ([5]; 2 h): 1.34 ± 0.23 %ID/g
Biodistribution, Fat ([5]; 2 h): 2.22 ± 1.07 %ID/g
Biodistribution, Heart ([5]; 2 h): 2.68 ± 0.45 %ID/g
Biodistribution, Intestine ([5]; 2 h): 5.19 ± 0.68 %ID/g
Biodistribution, Kidney ([5]; 2 h): 23.11 ± 4.11 %ID/g
Biodistribution, Liver ([5]; 2 h): 28.09 ± 3.73 %ID/g
Biodistribution, Lung ([5]; 2 h): 8.02 ± 1.49 %ID/g
Biodistribution, Muscle ([5]; 2 h): 0.78 ± 0.13 %ID/g
Biodistribution, Spleen ([5]; 2 h): 11.94 ± 3.50 %ID/g
Biodistribution, Stomach ([5]; 2 h): 2.35 ± 0.63 %ID/g
Biodistribution, Tumor ([5]; 2 h): 7.95 ± 1.58 %ID/g
Biodistribution, Blood ([5]; 6 h): 1.92 ± 0.53 %ID/g
Biodistribution, Bone ([5]; 6 h): 1.25 ± 0.20 %ID/g
Biodistribution, Fat ([5]; 6 h): 1.12 ± 0.79 %ID/g
Biodistribution, Heart ([5]; 6 h): 2.30 ± 0.30 %ID/g
Biodistribution, Intestine ([5]; 6 h): 4.55 ± 0.77 %ID/g
Biodistribution, Kidney ([5]; 6 h): 21.51 ± 3.13 %ID/g
Biodistribution, Liver ([5]; 6 h): 22.44 ± 2.56 %ID/g
Biodistribution, Lung ([5]; 6 h): 7.35 ± 3.45 %ID/g
Biodistribution, Muscle ([5]; 6 h): 0.40 ± 0.13 %ID/g
Biodistribution, Spleen ([5]; 6 h): 11.43 ± 5.81 %ID/g
Biodistribution, Stomach ([5]; 6 h): 2.18 ± 0.47 %ID/g
Biodistribution, Tumor ([5]; 6 h): 6.03 ± 3.20 %ID/g
Biodistribution, Blood ([5]; 24 h): 1.75 ± 0.41 %ID/g
Biodistribution, Bone ([5]; 24 h): 1.88 ± 0.35 %ID/g
Biodistribution, Fat ([5]; 24 h): 1.23 ± 0.52 %ID/g
Biodistribution, Heart ([5]; 24 h): 2.56 ± 0.49 %ID/g
Biodistribution, Intestine ([5]; 24 h): 4.17 ± 1.45 %ID/g
Biodistribution, Kidney ([5]; 24 h): 21.57 ± 6.53 %ID/g
Biodistribution, Liver ([5]; 24 h): 20.08 ± 4.40 %ID/g
Biodistribution, Lung ([5]; 24 h): 6.00 ± 0.85 %ID/g
Biodistribution, Muscle ([5]; 24 h): 0.69 ± 0.33 %ID/g
Biodistribution, Spleen ([5]; 24 h): 10.43 ± 1.98 %ID/g
Biodistribution, Stomach ([5]; 24 h): 2.66 ± 1.28 %ID/g
Biodistribution, Tumor ([5]; 24 h): 12.12 ± 1.17 %ID/g
Biodistribution, Blood ([5]; 48 h): 1.28 ± 0.24 %ID/g
Biodistribution, Bone ([5]; 48 h): 5.05 ± 6.09 %ID/g
Biodistribution, Fat ([5]; 48 h): 0.88 ± 0.42 %ID/g
Biodistribution, Heart ([5]; 48 h): 2.55 ± 0.12 %ID/g
Biodistribution, Intestine ([5]; 48 h): 2.56 ± 0.62 %ID/g
Biodistribution, Kidney ([5]; 48 h): 20.41 ± 3.03 %ID/g
Biodistribution, Liver ([5]; 48 h): 13.34 ± 0.55 %ID/g
Biodistribution, Lung ([5]; 48 h): 4.36 ± 0.62 %ID/g
Biodistribution, Muscle ([5]; 48 h): 0.98 ± 0.24 %ID/g
Biodistribution, Spleen ([5]; 48 h): 5.74 ± 1.34 %ID/g
Biodistribution, Stomach ([5]; 48 h): 1.72 ± 0.70 %ID/g
Biodistribution, Tumor ([5]; 48 h): 8.62 ± 0.44 %ID/g
Biodistribution, Blood ([6]; 2 h): 4.27 ± 0.64 %ID/g
Biodistribution, Bone ([6]; 2 h): 1.09 ± 0.32 %ID/g
Biodistribution, Brain ([6]; 2 h): 0.26 ± 0.07 %ID/g
Biodistribution, Fat ([6]; 2 h): 1.26 ± 0.28 %ID/g
Biodistribution, Heart ([6]; 2 h): 3.02 ± 0.52 %ID/g
Biodistribution, Intestine ([6]; 2 h): 4.22 ± 0.57 %ID/g
Biodistribution, Kidney ([6]; 2 h): 45.74 ± 12.68 %ID/g
Biodistribution, Liver ([6]; 2 h): 16.12 ± 4.51 %ID/g
Biodistribution, Lung ([6]; 2 h): 5.16 ± 1.26 %ID/g
Biodistribution, Muscle ([6]; 2 h): 1.01 ± 0.15 %ID/g
Biodistribution, Spleen ([6]; 2 h): 6.80 ± 2.46 %ID/g
Biodistribution, Stomach ([6]; 2 h): 2.30 ± 0.60 %ID/g
Biodistribution, Blood ([6]; 6 h): 2.04 ± 0.71 %ID/g
Biodistribution, Bone ([6]; 6 h): 1.10 ± 0.40 %ID/g
Biodistribution, Brain ([6]; 6 h): 0.25 ± 0.10 %ID/g
Biodistribution, Fat ([6]; 6 h): 0.72 ± 0.13 %ID/g
Biodistribution, Heart ([6]; 6 h): 2.67 ± 0.53 %ID/g
Biodistribution, Intestine ([6]; 6 h): 5.85 ± 2.69 %ID/g
Biodistribution, Kidney ([6]; 6 h): 56.43 ± 5.37 %ID/g
Biodistribution, Liver ([6]; 6 h): 19.13 ± 5.32 %ID/g
Biodistribution, Lung ([6]; 6 h): 5.77 ± 1.12 %ID/g
Biodistribution, Muscle ([6]; 6 h): 0.74 ± 0.18 %ID/g
Biodistribution, Spleen ([6]; 6 h): 7.09 ± 0.68 %ID/g
Biodistribution, Stomach ([6]; 6 h): 2.26 ± 1.59 %ID/g
Biodistribution, Blood ([6]; 24 h): 2.01 ± 0.92 %ID/g
Biodistribution, Bone ([6]; 24 h): 0.94 ± 0.41 %ID/g
Biodistribution, Brain ([6]; 24 h): 0.37 ± 0.08 %ID/g
Biodistribution, Fat ([6]; 24 h): 0.70 ± 0.33 %ID/g
Biodistribution, Heart ([6]; 24 h): 2.91 ± 0.66 %ID/g
Biodistribution, Intestine ([6]; 24 h): 3.64 ± 0.83 %ID/g
Biodistribution, Kidney ([6]; 24 h): 41.77 ± 12.09 %ID/g
Biodistribution, Liver ([6]; 24 h): 16.15 ± 3.65 %ID/g
Biodistribution, Lung ([6]; 24 h): 5.56 ± 1.13 %ID/g
Biodistribution, Muscle ([6]; 24 h): 0.68 ± 0.18 %ID/g
Biodistribution, Spleen ([6]; 24 h): 4.14 ± 0.89 %ID/g
Biodistribution, Stomach ([6]; 24 h): 1.38 ± 0.15 %ID/g
Biodistribution, Blood ([6]; 48 h): 1.22 ± 0.36 %ID/g
Biodistribution, Bone ([6]; 48 h): 0.96 ± 0.25 %ID/g
Biodistribution, Brain ([6]; 48 h): 0.44 ± 0.13 %ID/g
Biodistribution, Fat ([6]; 48 h): 0.51 ± 0.27 %ID/g
Biodistribution, Heart ([6]; 48 h): 2.72 ± 0.39 %ID/g
Biodistribution, Intestine ([6]; 48 h): 2.53 ± 0.54 %ID/g
Biodistribution, Kidney ([6]; 48 h): 24.37 ± 1.88 %ID/g
Biodistribution, Liver ([6]; 48 h): 13.48 ± 1.56 %ID/g
Biodistribution, Lung ([6]; 48 h): 4.66 ± 0.50 %ID/g
Biodistribution, Muscle ([6]; 48 h): 0.62 ± 0.12 %ID/g
Biodistribution, Spleen ([6]; 48 h): 2.73 ± 0.28 %ID/g
Biodistribution, Stomach ([6]; 48 h): 1.45 ± 0.65 %ID/g
SMILES: O=C([O-])CN1CCN(CC(=O)[O-])CCN(CC(=O)N[C@@H](CCCCNC(=O)CCCc2ccc(I)cc2)C(=O)NCCOCCOCC(=O)N(CCCC[C@H](NC(=O)N[C@@H](CCC(=O)O)C(=O)O)C(=O)O)CC(=O)O)CCN(CC(=O)[O-])CC1.[64Cu+2] [^64Cu-cudotadipep]
cellular uptake ([2]; PC3-PIP cells, 1 × 10^6 cells, 3.7 MBq, 2 h, 37 °C): 2.93 ± 0.06%
cellular uptake [3]: 0.44 ± 0.06%

SMILES: O=C(O)CC[C@H](NC(=O)N[C@@H](CCCCNC(=O)[C@H](Cc1ccc2ccccc2c1)NC(=O)c1ccc(CNC(=O)[C@H](CCC(=O)O)NC(=O)[C@H](CCC(=O)O)NC(=O)c2ccc([18F])nc2)cc1)C(=O)O)C(=O)O [^18F-PSMA-1007]
effective dose [7]: 2.20 × 10^−2 mSv/MBq

Ki ([8]; 22Rv1 cells, converted from IC50 with the Cheng–Prusoff equation using Kd of MIP-1095): 2.17 ± 0.25 nM
IC50 ([8]; cold forms, PSMA-expressing 22Rv1 cells, 1 h, 37 °C): 5.42 ± 0.64 nM
SMILES: O=C([O-])CN1CCN(CC(=O)[O-])CCN(CC(=O)N[C@@H](CCCCNC(=O)CCCc2ccc(I)cc2)C(=O)NCCOCCOCC(=O)N(CCCC[C@H](NC(=O)N[C@@H](CCC(=O)O)C(=O)O)C(=O)O)CC(=O)O)CC1.[Cu+2] [Cu-cunotadipep]
cellular uptake ([2]; as given in the abstract): 6.02 ± 0.05 %/1 × 10^6 cells
